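Exposure lasted 48 hours, with cells grown in 96-well plates and compounds tested at five concentrations. At the GI50, growth is halved.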 The source made the active and inactive calls. Cut-off read from the data, not from the text of the source: active = GI50 up to about 1.1 µM and inactive = higher.
Key:
Test in all cases: NCI-60 cell line screen, 48 h
HCC 2998 = test system: HCC 2998
IGROV-1 = test system: IGROV-1
COLO 205 = test system: COLO 205
SN12C = test system: SN12C
OVCAR-5 = test system: OVCAR-5
OVCAR-8 = test system: OVCAR-8
HOP-62 = test system: HOP-62
A498 = test system: A498
HCT-116 = test system: HCT-116
SF-295 = test system: SF-295
SK-MEL-28 = test system: SK-MEL-28
RPMI-8226 = test system: RPMI-8226
NCI-H226 = test system: NCI-H226
OVCAR-4 = test system: OVCAR-4
OVCAR-3 = test system: OVCAR-3

Compound	GI50 (HCC 2998)	GI50 (IGROV-1)	GI50 (COLO 205)	GI50 (SN12C)	GI50 (OVCAR-5)	GI50 (OVCAR-8)	GI50 (HOP-62)	GI50 (A498)	GI50 (HCT-116)	GI50 (SF-295)	GI50 (SK-MEL-28)	GI50 (RPMI-8226)	GI50 (NCI-H226)	GI50 (OVCAR-4)	GI50 (OVCAR-3)
O=c1c(-c2ccccc2)c2oc(c1-c1ccccc1)CSCc1cccc(c1)CSC2	94.6 µM (inactive)	26.3 µM (inactive)	49.1 µM (inactive)	49.1 µM (inactive)	> 100 µM (inactive)	43.1 µM (inactive)	21.9 µM (inactive)	21.8 µM (inactive)	41.2 µM (inactive)	51.2 µM (inactive)	24 µM (inactive)	27.9 µM (inactive)	56.4 µM (inactive)	51.9 µM (inactive)	27.8 µM (inactive)
C[n+]1c2ccccc2c(CNCC(=O)O)c2ccccc21	5.92 µM (inactive)	5.96 µM (inactive)	0.418 µM (active)	0.562 µM (active)	15.2 µM (inactive)	2.75 µM (inactive)	6.27 µM (inactive)	2.61 µM (inactive)	0.39 µM (active)	5.07 µM (inactive)	–	0.29 µM (active)	3.3 µM (inactive)	12.6 µM (inactive)	1.87 µM (inactive)
CCOC(=O)[C@H]1Nc2ccc(O)cc2C2c3ccccc3CC21 (some centres undefined)	49 µM (inactive)	> 100 µM (inactive)	> 100 µM (inactive)	87.1 µM (inactive)	> 100 µM (inactive)	> 100 µM (inactive)	> 100 µM (inactive)	> 100 µM (inactive)	68.1 µM (inactive)	> 10 µM (inactive)	34.8 µM (inactive)	43.2 µM (inactive)	> 100 µM (inactive)	42.1 µM (inactive)	35.2 µM (inactive)
COc1cccc(C2C(C(=O)Nc3cc(=O)n(C)c(=O)n3C)=C(C)NC(C)=C2C(=O)Nc2cc(=O)n(C)c(=O)n2C)c1O	> 100 µM (inactive)	> 100 µM (inactive)	> 100 µM (inactive)	> 100 µM (inactive)	> 100 µM (inactive)	> 100 µM (inactive)	> 100 µM (inactive)	> 100 µM (inactive)	–	> 100 µM (inactive)	> 100 µM (inactive)	66.1 µM (inactive)	> 100 µM (inactive)	> 100 µM (inactive)	> 100 µM (inactive)
Cc1ccc(S(=O)(=O)C2CC2(Cl)Cl)cc1 (centres undefined)	44.4 µM (inactive)	26.9 µM (inactive)	21.6 µM (inactive)	18.7 µM (inactive)	> 100 µM (inactive)	20.9 µM (inactive)	–	–	20.4 µM (inactive)	38.6 µM (inactive)	53.1 µM (inactive)	–	> 100 µM (inactive)	0.0162 µM (active)	19.9 µM (inactive)
CCOc1ccc(NC(=O)CC2C(=O)Nc3ccccc3[S+]2[O-])cc1 (centres undefined)	> 64.7 µM (inactive)	> 90.6 µM (inactive)	> 100 µM (inactive)	> 71 µM (inactive)	> 100 µM (inactive)	57.9 µM (inactive)	> 100 µM (inactive)	> 64 µM (inactive)	> 85.3 µM (inactive)	> 100 µM (inactive)	> 100 µM (inactive)	> 100 µM (inactive)	> 64.7 µM (inactive)	> 57.1 µM (inactive)	> 59.7 µM (inactive)
Cc1ccc(S(=O)(=O)NC2(C=O)CCC(C(C)(C)C)CC2)cc1 (centres undefined)	36.9 µM (inactive)	37.7 µM (inactive)	26.7 µM (inactive)	26.1 µM (inactive)	79.3 µM (inactive)	36.5 µM (inactive)	> 100 µM (inactive)	89.9 µM (inactive)	23.8 µM (inactive)	31.3 µM (inactive)	–	19.1 µM (inactive)	> 100 µM (inactive)	27.7 µM (inactive)	24.5 µM (inactive)
C[Si](C)(c1ccccc1)C1CC(=O)CC(=O)C1	> 100 µM (inactive)	22.7 µM (inactive)	> 100 µM (inactive)	> 100 µM (inactive)	> 100 µM (inactive)	> 100 µM (inactive)	> 100 µM (inactive)	–	> 100 µM (inactive)	> 100 µM (inactive)	> 100 µM (inactive)	> 100 µM (inactive)	> 100 µM (inactive)	> 100 µM (inactive)	> 100 µM (inactive)
COc1nc2c(c(O)c(C)c(=O)n2OC2OCC(OC(C)=O)C(OC(C)=O)C2OC(C)=O)c(=O)n1C (centres undefined)	> 100 µM (inactive)	> 100 µM (inactive)	> 100 µM (inactive)	> 100 µM (inactive)	> 100 µM (inactive)	> 100 µM (inactive)	> 100 µM (inactive)	–	> 100 µM (inactive)	> 100 µM (inactive)	> 100 µM (inactive)	–	> 100 µM (inactive)	> 100 µM (inactive)	–
C[N+](C)(C)CC(=O)N/N=C(/C=C/c1ccccc1)CC1OC(=O)c2ccccc21 (centres undefined)	> 100 µM (inactive)	> 100 µM (inactive)	> 100 µM (inactive)	> 100 µM (inactive)	> 10 µM (inactive)	> 100 µM (inactive)	> 100 µM (inactive)	> 100 µM (inactive)	> 100 µM (inactive)	> 10 µM (inactive)	> 100 µM (inactive)	> 100 µM (inactive)	> 100 µM (inactive)	> 100 µM (inactive)	–
O=c1[nH]cc(F)c(=O)n1C1OC(CO)C(O)C1O (centres undefined)	> 100 µM (inactive)	–	> 100 µM (inactive)	> 100 µM (inactive)	> 100 µM (inactive)	> 100 µM (inactive)	> 100 µM (inactive)	–	–	> 100 µM (inactive)	> 100 µM (inactive)	> 100 µM (inactive)	> 100 µM (inactive)	> 100 µM (inactive)	> 100 µM (inactive)
CCOc1ccc2c(c1)[n+]([O-])c(C(N)=O)c(N)[n+]2[O-]	–	> 100 µM (inactive)	> 100 µM (inactive)	> 100 µM (inactive)	> 100 µM (inactive)	> 100 µM (inactive)	> 100 µM (inactive)	> 100 µM (inactive)	> 100 µM (inactive)	> 100 µM (inactive)	> 100 µM (inactive)	–	> 100 µM (inactive)	> 100 µM (inactive)	> 100 µM (inactive)
O=C(O)/C(Cl)=C(\Cl)Nc1cccc(C(F)(F)F)c1	> 100 µM (inactive)	> 100 µM (inactive)	> 100 µM (inactive)	> 100 µM (inactive)	–	> 100 µM (inactive)	> 100 µM (inactive)	–	–	> 100 µM (inactive)	> 100 µM (inactive)	–	–	> 100 µM (inactive)	> 100 µM (inactive)
COC(=O)C(C(=O)C(=O)Nc1ccc(C(F)(F)F)cc1[N+](=O)[O-])c1csc(-n2nc(-c3ccccc3)cc2-c2ccccc2)n1 (centres undefined)	> 100 µM (inactive)	> 100 µM (inactive)	> 100 µM (inactive)	> 100 µM (inactive)	> 100 µM (inactive)	> 100 µM (inactive)	> 100 µM (inactive)	> 100 µM (inactive)	> 100 µM (inactive)	> 100 µM (inactive)	–	> 100 µM (inactive)	> 100 µM (inactive)	> 100 µM (inactive)	> 100 µM (inactive)
CCCC(S(=O)(=O)c1ccccc1)S(=O)(=O)c1ccccc1	> 100 µM (inactive)	> 100 µM (inactive)	–	–	> 100 µM (inactive)	> 100 µM (inactive)	> 100 µM (inactive)	> 100 µM (inactive)	> 100 µM (inactive)	83.4 µM (inactive)	> 100 µM (inactive)	> 100 µM (inactive)	86.7 µM (inactive)	> 100 µM (inactive)	> 100 µM (inactive)
O=[N+]([O-])c1cccc(S(=O)(=O)N/N=C/c2cc(I)cc([N+](=O)[O-])c2O)c1	57 µM (inactive)	36.3 µM (inactive)	16.5 µM (inactive)	24.2 µM (inactive)	40.1 µM (inactive)	25.6 µM (inactive)	26.7 µM (inactive)	> 100 µM (inactive)	27.9 µM (inactive)	32.7 µM (inactive)	27.7 µM (inactive)	37 µM (inactive)	–	27.9 µM (inactive)	21.4 µM (inactive)
C[C@@H]1OC(=O)N2CCCC(=C3SCCCS3)C12 (some centres undefined)	–	90.8 µM (inactive)	> 100 µM (inactive)	> 100 µM (inactive)	> 100 µM (inactive)	57.9 µM (inactive)	–	> 100 µM (inactive)	44.4 µM (inactive)	90.2 µM (inactive)	> 100 µM (inactive)	36.9 µM (inactive)	44.9 µM (inactive)	> 100 µM (inactive)	> 100 µM (inactive)
Nc1nc2c(ncn2CCCC(c2ccccc2)P(=O)(O)O)c(=O)[nH]1 (centres undefined)	> 100 µM (inactive)	> 100 µM (inactive)	> 100 µM (inactive)	> 100 µM (inactive)	> 100 µM (inactive)	> 100 µM (inactive)	> 100 µM (inactive)	–	> 100 µM (inactive)	> 100 µM (inactive)	> 100 µM (inactive)	> 100 µM (inactive)	–	–	> 100 µM (inactive)
O=C1C(N2C(=O)c3ccccc3C2=O)CN1C(COCc1ccccc1)c1ccc(OCc2ccccc2)cc1 (centres undefined)	> 100 µM (inactive)	> 100 µM (inactive)	> 100 µM (inactive)	> 100 µM (inactive)	> 100 µM (inactive)	> 100 µM (inactive)	> 100 µM (inactive)	> 100 µM (inactive)	> 100 µM (inactive)	> 100 µM (inactive)	> 100 µM (inactive)	> 100 µM (inactive)	> 100 µM (inactive)	> 100 µM (inactive)	> 100 µM (inactive)
COc1ccc(-c2nc3c(nc2-c2ccc(OC)cc2)N(C)S(=O)(=O)N=C3N)cc1	35.6 µM (inactive)	28.1 µM (inactive)	14.7 µM (inactive)	41 µM (inactive)	25.2 µM (inactive)	34.2 µM (inactive)	33.6 µM (inactive)	22.5 µM (inactive)	15 µM (inactive)	22.3 µM (inactive)	32.1 µM (inactive)	10.6 µM (inactive)	–	14.1 µM (inactive)	14 µM (inactive)

— ChEMBL document CHEMBL1201862, “PubChem BioAssay data set” (2004)
